# System: Secretion of ApoB
# Experiment: Quantification of the secretion of ApoB in HepG2 cells
# Type: cell-based
# Conditions: Homo sapiens, HepG2, 24 h, 24 hours of incubation with test compound, immunoprecipitation of apoB from medium, read-out: pIC50 value (=-log IC50 value), secretion of ApoB (converted)
# Method: HepG2 cells were cultured in 24-well plates in MEM Rega 3 containing 10% fetal calf serum. At 70% confluency, the medium was changed and the test compound or carrier (DMSO, 0.4% final concentration) was added. After 24 hours of incubation, the medium was transferred to Eppendorf tubes and cleared by centrifugation. A sheep antibody directed against either apoB was added to the supernatant and the mixture was kept at 8° C. for 24 hours. Then, rabbit anti-sheep antibody was added and the immune complex was allowed to precipitate for 24 hours at 8° C. The immunoprecipitate was pelleted by centrifugation for 25 minutes at 1320 g and washed twice with a buffer containing 40 mM Mops, 40 mM NaH2PO4, 100 mM NaF, 0.2 mM DTT, 5 mM EDTA, 5 mM EGTA, 1% Triton-X-100, 0.5% sodium deoxycholate (DOC), 0.1% SDS, 0.2 μM leupeptin and 0.2 μM PMSF. Radioactivity in the pellet was quantified by liquid scintillation-counting. The IC50 values are usually converted to pIC50 values (=−log IC50 value) for ease of use.
row,IC50 [nM],SMILES
1,316 to 3160,Cc1nn(C(C)C)c(=O)n1-c1ccc(N2CCN(C(C(=O)Nc3ccccc3)c3ccccc3)CC2)cc1 (stereo not shown) [Compound 112]
2,31.6 to 316,CCOC(=O)C(c1ccccc1)C1CCN(c2ccc(-n3ccn(C(C)c4ccccc4)c3=O)cc2)CC1 (stereo not shown) [Compound 222]
3,31.6 to 316,CCOC(=O)c1cc(NC(=O)C(c2ccccc2)C2CCN(c3ccc(-n4cnn(C(C)c5ccccc5)c4=O)cc3)CC2)ccc1C (stereo not shown) [Compound 369]
4,316 to 3160,CC(C)NC(=O)C(c1ccccc1)N1CCN(c2ccc(-n3ncn(C(C)C)c3=O)cc2)CC1 (stereo not shown) [Compound 115]
5,316 to 3160,CCOC(=O)C(c1ccccc1)C1CCN(c2ccc(-n3ccn([C@H](COC)c4ccccc4)c3=O)cc2)CC1 (stereo partly shown) [Compound 259]
6,316 to 3160,CNC(=O)C(c1ccccc1)N1CCN(c2ccc(-n3cnn(C(C)C)c3=O)cc2)CC1 (stereo not shown) [Compound 136]
7,31.6 to 316,O=C(NCc1ccccc1)C(c1ccccc1)C1CCN(c2ccc(-n3cnn(CC4CC4)c3=O)cc2)CC1 (stereo not shown) [Compound 182]
8,31.6 to 316,CCCCCn1ncn(-c2ccc(N3CCC(C(C(=O)Nc4ccccc4)c4ccccc4)CC3)cc2)c1=O (stereo not shown) [Compound 51]
9,31.6 to 316,CCCNC(=O)C(c1ccccc1)C1CCN(c2ccc(-n3cnn(CC(C)C)c3=O)cc2)CC1 (stereo not shown) [Compound 153]
10,316 to 3160,CCCCCNC(=O)C(c1ccccc1)N1CCN(c2ccc(-n3c(C)nn(C(C)C)c3=O)cc2)CC1 (stereo not shown) [Compound 111]
11,316 to 3160,CC(C)n1ncn(-c2ccc(N3CCN(C(C(=O)NCCCN(C)c4ccccc4)c4ccccc4)CC3)cc2)c1=O (stereo not shown) [Compound 84]
12,316 to 3160,COc1ccc(CNC(=O)C(c2ccccc2)N2CCN(c3ccc(-n4cnn(C(C)C)c4=O)cc3)CC2)cc1 (stereo not shown) [Compound 71]
13,31.6 to 316,CCOC(=O)[C@H](c1ccccc1)N1CCN(c2ccc(-n3ccn(C(C)c4cc(F)ccc4F)c3=O)cc2)CC1 (stereo in doubt) [Compound 340]
14,31.6 to 316,Cc1ccc(C)c(NC(=O)C(c2ccccc2)N2CCN(c3ccc(-n4cnn(C(C)C)c4=O)cc3)CC2)c1 (stereo not shown) [Compound 54]
15,31.6 to 316,COC(=O)c1ccccc1CNC(=O)C(c1ccccc1)N1CCN(c2ccc(-n3ccn(C(C)C)c3=O)c(C)c2)CC1 (stereo not shown) [Compound 289]
16,< 31.6,CC(C)n1ncn(-c2ccc(N3CCN(C(C(=O)Nc4ccc5c(c4)CCC5)c4ccccc4)CC3)c(Cl)c2)c1=O (stereo not shown) [Compound 215]
17,31.6 to 316,COc1cccc(NC(=O)C(c2ccccc2)N2CCN(c3ccc(-n4cnn(C(C)C)c4=O)cc3)CC2)c1 (stereo not shown) [Compound 61]
18,316 to 3160,CCNC(=O)C(c1ccccc1)N1CCN(c2ccc(-n3cnn(C(C)C)c3=O)cn2)CC1 (stereo not shown) [Compound 46]
19,316 to 3160,CCOC(=O)C(c1ccccc1)N1CCC(c2ccc(-n3ccn([C@H](COC)c4ccccc4)c3=O)cc2)CC1 (stereo partly shown) [Compound 239]
20,31.6 to 316,CCOC(=O)[C@H](c1ccccc1)N1CCN(c2ccc(-n3ccn(C(C)c4cccc(F)c4)c3=O)cc2)CC1 (stereo in doubt) [Compound 337]
21,316 to 3160,CC(C)n1ncn(-c2ccc(N3CCN(C(C(=O)Nc4ccncc4)c4ccccc4)CC3)cc2)c1=O (stereo not shown) [Compound 10]
22,316 to 3160,CCOC(=O)[C@@H](C)NC(=O)CC1CCN(c2ccc(-n3cnn(C(C)c4ccccc4)c3=O)cc2)CC1 (stereo partly shown) [Compound 391]

row,IC50 [nM],SMILES
1,316 to 3160,CCOC(=O)C(c1ccccc1)N1CCC(c2ccc(-n3ccn([C@@H](C)c4ccc(F)cc4)c3=O)cc2)CC1 (stereo partly shown) [Compound 223]
2,316 to 3160,COC(=O)C(CCN1CCN(c2ccc(-n3cnn(C(C)C)c3=O)cc2)CC1)c1ccccc1 (stereo not shown) [Compound 169]
3,31.6 to 316,CCC(C)n1ncn(-c2ccc(N3CCN(C(C(=O)NCC(F)(F)F)c4ccccc4)CC3)cc2)c1=O (stereo not shown) [Compound 178]
4,316 to 3160,CCOC(=O)CC[C@H](NC(=O)CC1CCN(c2ccc(-n3cnn(C(C)c4ccccc4)c3=O)cc2)CC1)C(=O)OCC (stereo partly shown) [Compound 397]
5,316 to 3160,CC(C)CNC(=O)C(c1ccccc1)N1CCN(c2ccc(-n3ncn(C(C)C)c3=O)cc2)CC1 (stereo not shown) [Compound 119]
6,31.6 to 316,CCOC(=O)C(c1ccccc1)N1CCC(c2ccc(-n3ccn([C@H](C)c4ccc(F)cc4)c3=O)cc2)CC1 (stereo partly shown) [Compound 224]
7,316 to 3160,CC(C)n1nc(-c2ccccc2)n(-c2ccc(N3CCN(C(C(=O)NCc4ccccc4)c4ccccc4)CC3)cc2)c1=O (stereo not shown) [Compound 33]
8,316 to 3160,CCOC(=O)CC1CCN(c2ccc(-n3cnn(C(C)C)c3=O)cc2)CC1 [Compound 385]
9,316 to 3160,CCCCNC(=O)C(c1ccccc1)N1CCN(c2ccc(-n3ncn(C(C)C)c3=O)cc2)CC1 (stereo not shown) [Compound 118]
10,316 to 3160,CCOC(=O)C(c1ccccc1)C1CCN(c2ccc(-n3ccn([C@@H](COC)c4ccccc4)c3=O)cc2)CC1 (stereo partly shown) [Compound 260]
11,316 to 3160,COC(=O)C(c1ccccc1)N1CCN(c2ccc(-n3cnn(C(C)C)c3=O)cc2)CC1 (stereo not shown) [Compound 172]
12,316 to 3160,COC(=O)C(c1ccccc1)N1CCN(c2ccc(-n3nc(-c4ccccc4)n(-c4ccccc4)c3=O)cc2)CC1 (stereo not shown) [Compound 29]
13,31.6 to 316,CCCCNC(=O)C(CN1CCN(c2ccc(-n3cnn(C(C)C)c3=O)cc2)CC1)c1ccccc1 (stereo not shown) [Compound 106]
14,31.6 to 316,CCOC(=O)C(c1ccccc1)N1CCC(c2ccc(-n3ccn([C@H](C)c4ccccc4F)c3=O)cc2)CC1 (stereo partly shown) [Compound 278]
15,316 to 3160,COCCNC(=O)C(CN1CCN(c2ccc(-n3cnn(C(C)C)c3=O)cc2)CC1)c1ccccc1 (stereo not shown) [Compound 105]
16,31.6 to 316,CCCN(CCC)C(=O)C(CCN1CCN(c2ccc(-n3ncn(C(C)C)c3=O)cc2)CC1)c1ccccc1 (stereo not shown) [Compound 3]
17,316 to 3160,C=CCNC(=O)C(c1ccccc1)N1CCN(c2ccc(-n3ncn(C(C)C)c3=O)cc2)CC1 (stereo not shown) [Compound 116]
18,316 to 3160,COCCNC(=O)C(c1ccccc1)N1CCN(c2ccc(-n3cnn(C(C)C)c3=O)cc2)CC1 (stereo not shown) [Compound 131]
19,31.6 to 316,CC(C)n1cnn(-c2ccc(N3CCN(C(C(=O)Nc4ccc5c(c4)CCC5)c4ccccc4)CC3)cc2)c1=O (stereo not shown) [Compound 191]
20,31.6 to 316,CCOC(=O)C(c1ccccc1)N1CCN(c2ccc(-n3cnn(C(C)c4ccccc4F)c3=O)cc2)CC1 (stereo not shown) [Compound 350]
21,31.6 to 316,COC(=O)C(c1ccccc1)N1CCC(c2ccc(-n3cnn(C(C)C)c3=O)cc2)CC1 (stereo not shown) [Compound 171]
22,316 to 3160,CC(C)Cn1ncn(-c2ccc(N3CCC(C(C(=O)NC(C)C)c4ccccc4)CC3)cc2)c1=O (stereo not shown) [Compound 90]

row,IC50 [nM],SMILES
1,31.6 to 316,CCOC(=O)C(c1ccccc1)C1CCN(c2ccc(-n3ccn(C(CC)c4ccccc4)c3=O)cc2)CC1 (stereo not shown) [Compound 263]
2,31.6 to 316,CCOC(=O)C(c1ccccc1)N1CCC(c2ccc(-n3ccn([C@H](C)c4ccc(C(F)(F)F)cc4)c3=O)cc2)CC1 (stereo partly shown) [Compound 277]
3,31.6 to 316,CC(C)n1ncn(-c2ccc(N3CCN(C(C(=O)Nc4ccc5c(c4)OCO5)c4ccccc4)CC3)cc2)c1=O (stereo not shown) [Compound 200]
4,316 to 3160,COC(=O)C(c1ccc(C)cc1)N1CCC(c2ccc(-n3cnn(C(C)C)c3=O)cc2)CC1 (stereo not shown) [Compound 324]
5,316 to 3160,CCNC(=O)C(c1ccccc1)N1CCN(c2ccc(-n3nc(-c4ccccc4)n(-c4ccccc4)c3=O)cc2)CC1 (stereo not shown) [Compound 26]
6,316 to 3160,CCOC(=O)[C@@H](Cc1ccccc1)NC(=O)CC1CCN(c2ccc(-n3cnn(C(C)c4ccccc4)c3=O)cc2)CC1 (stereo partly shown) [Compound 396]
7,316 to 3160,CC(C)n1ncn(-c2ccc(N3CCN(C(C(=O)N(C)C)c4ccccc4)CC3)cc2)c1=O (stereo not shown) [Compound 137]
8,316 to 3160,CC(C)n1ncn(-c2ccc(N3CCN(C(C(=O)NCCNc4cccc5ccccc45)c4ccccc4)CC3)cc2)c1=O (stereo not shown) [Compound 67]
9,316 to 3160,CCOC(=O)C(C)NC(=O)CC1CCN(c2ccc(-n3cnn(C(C)c4ccccc4)c3=O)cc2)CC1 (stereo not shown) [Compound 403]
10,< 31.6,COC(=O)c1cc(NC(=O)C(c2ccccc2)N2CCC(c3ccc(-n4cnn(C(C)c5ccccc5)c4=O)cc3)CC2)ccc1C (stereo not shown) [Compound 284]
11,316 to 3160,CCOC(=O)C(c1ccccc1)N1CCN(c2ccc(-n3cnn(C(C)C)c3=O)cc2)CC1 (stereo not shown) [Compound 17]
12,31.6 to 316,COC(=O)c1ccc(CNC(=O)C(c2ccccc2)N2CCN(c3ccc(-n4ccn(C(C)C)c4=O)c(C)c3)CC2)cc1C (stereo not shown) [Compound 286]
13,316 to 3160,COC(=O)C(c1ccc(C)cc1)N1CCN(c2ccc(-n3cnn(C(C)C)c3=O)cc2)CC1 (stereo not shown) [Compound 330]
14,31.6 to 316,COC(=O)C(c1ccccc1Cl)N1CCN(c2ccc(-n3cnn(C(C)C)c3=O)cc2)CC1 (stereo not shown) [Compound 325]
15,316 to 3160,CCOC(=O)C(c1ccccc1)C1CCN(c2ccc(-n3ccn([C@H](C)c4cccc5ccccc45)c3=O)cc2)CC1 (stereo partly shown) [Compound 245]
16,31.6 to 316,CNC(=O)C(c1ccccc1)N1CCC(c2ccc(-n3cnn(C(C)C)c3=O)cc2)CC1 (stereo not shown) [Compound 142]
17,316 to 3160,CC(C)n1ncn(-c2ccc(N3CCN(C(C(=O)NCCC#N)c4ccccc4)CC3)nc2)c1=O (stereo not shown) [Compound 50]
18,316 to 3160,COC(=O)c1ccc(CNC(=O)C(c2ccccc2)N2CCN(c3ccc(-n4cnn(C(C)c5ccccc5)c4=O)cc3)CC2)cc1C (stereo not shown) [Compound 287]
19,31.6 to 316,CC(C)n1ncn(-c2ccc(N3CCN(C(C(=O)Nc4ccc5c(c4)NCC5)c4ccccc4)CC3)cc2)c1=O (stereo not shown) [Compound 201]
20,31.6 to 316,CCOC(=O)[C@H](c1ccccc1)N1CCN(c2ccc(-n3cnn([C@@H](C)c4ccccc4)c3=O)cc2)CC1 (stereo in doubt) [Compound 304]
